Assay results reported in US11299543B2, “Use of an anti-PD-1 antibody in combination with an anti-CD30 antibody in cancer treatment” (Bristol-Myers Squibb Company, priority 2016, dated 2022).
Entries after “also recorded” stand apart in the source; their conditions may differ. *1 amine or outer side, *2 acyl side, *3 side chain or, on linkers, in order; H or OH if unused. Where a SMILES comes first, the peptide text is derived from it. [ ]: non-standard residue; d: D form. The star is where a group is joined. Dolaproine = CO[C@@H]([C@@H]1CCCN1)[C@@H](C)C(=O)O; Hexanoyl(6-maleimido) = O=C1C=CC(=O)N1CCCCCC(=O)*; Dil = CC[C@H](C)[C@H](NC)[C@@H](CC(=O)O)OC; PABC = O=C(OCc1ccc(N[*:1])cc1)[*:2]; X1 = C[C@@H](N*)[C@@H](O)c1ccccc1; Cit = NC(=O)NCCC[C@H](N)C(=O)O; NMeV = CN[C@H](C(=O)O)C(C)C

What was measured:
[1] = system: wild-type A20 cells; assay: immunization with drug-killed A20^hcD30 cells, then wild-type A20 challenge; assay type: in vivo, Balb/c mice; conditions: mice immunized with drug-killed A20^hcD30 cells; for tumor growth: 5×10^6 wild-type A20 cells s.c.
Experimental: A20 mouse lymphoma cells were transfected with plasmid constructs encoding human TNFRSF8 (NM_001243.4) and sgRNA/Cas9 for control under the endogenous promoter of murine Tnfrsf8. Fluorescence activated cell sorting (FACS) yielded a clonal population of A20 cells that stably expressed human CD30, to be referenced as A20^hcD30, in order to be susceptible to brentuximab vedotin treatment.
A20^hcD30 cells were cultured in RPMI 1640 with 10% FBS, 10 mM HEPES, 1 mM sodium pyruvate, penicillin (100 U/ml), and streptomycin (100 μg/ml). A20^hcD30 cells were treated with 1 μg/ml BV or 100 nM mc-vc-MMAE for 4 days. In order to prepare dying cells for immunization, treated A20^hcD30 cells were overlaid atop Histopaque, and centrifuged at 2000 g for 30 minutes. Dead and dying cells were pelleted underneath the Histopaque layer, and viability was assessed to be <20% live cells by trypan blue exclusion. Flash-frozen A20^hcD30 cells were prepared by submerging cells in liquid nitrogen for 10 seconds, followed by immersion in 37° C. water until completely thawed. The liquid nitrogen freeze-thaw process was repeated 5 times. Dead and dying A20^hcD30 cells were resuspended in PBS and 2×10^6 cells were injected into the peritoneum of immune-competent Balb/c mice. 7 days later, mice received a second immunization with dead and dying cells prepared in the same manner.
14 days after initial immunization, mice were subcutaneously implanted with 5×10^6 wild-type A20 cells and monitored for tumor growth. […] As these effects occurred in the absence of any administered therapeutic, the presence of cells killed by BV or MMAE were sufficient to generate long-lasting protective immune memory against subsequent A20 lymphoma challenge.

[2] = system: wild-type A20 cells; assay: immunization with drug-killed A20^hcD30 cells plus anti-PD-1, A20 challenge; assay type: in vivo, Balb/c mice; conditions: anti-PD-1 1 mg/kg i.v. days 6, 9, 14, 17
Experimental: Balb/c mice were immunized with BV- or MMAE-killed A20^hcD30 cells as described above. 14 days after initial immunization, mice were subcutaneously implanted with 5×10^6 wild-type A20 cells. Anti-murine PD-1 (1 mg/kg, BioLegend) was administered intravenously on days 6, 9, 14, and 17 after A20 tumor challenge.

[3] = system: TARC, IP10, IL-18, IFNγ; assay: phase 1/2 study NCT02572167, serum cytokine and chemokine levels; assay type: in vivo, human
Experimental: FIGS. 6A-6D show priming of the immune system of patients treated with brentuximab vedotin (BV) in combination with nivolumab.
(§1) A phase 1/2 study (NCT02572167) is ongoing to assess the safety profile and antitumor activity of BV administered in combination with nivolumab in patients with relapsed or refractory Hodgkin lymphoma (HL). Patients will be treated for up to four 21-day cycles with BV 1.8 mg/kg and nivolumab 3 mg/kg. Patients will be administered 1.8 mg/kg BV on Cycle 1 Day 1, and 3 mg/kg nivolumab on Cycle 1 Day 8. For cycles 2 through 4, BV and nivolumab will be administered on Day 1 of each cycle at the same doses, e.g., 1.8 mg/kg BV and 3 mg/kg nivolumab. Both BV and nivolumab will be administered by IV injection. After completion of the Cycle 4 response assessment (EOT), patients will be eligible to undergo ASCT. Responses were assessed using the 2014 Lugano classification (Cheson et al., J Clin Oncol 2014; 32(27):3059-68).

[4] = system: peripheral blood T cell subsets; assay: phase 1/2 study NCT02572167, peripheral blood immunophenotyping; assay type: in vivo, human
Description: FIGS. 7A-7C show peripheral blood immunophenotyping. T helper subsets, such as Tregs, (FIG. 7A), activated CD4^+ T cells (FIG. 7B), and proliferating CD4^+ T cells (FIG. 7C), which were reduced after single agent BV dosing, expanded after BV and nivolumab combination dosing.
as §1

[5] = system: wild-type A20 cells; assay: T cell transfer from immunized mice into A20 tumor-bearing NSG mice; assay type: in vivo
Experimental: Immune-competent Balb/c mice were immunized with BV-killed or flash-frozen-killed A20^hcD30 cells as previously described. 16 weeks after initial immunization, spleens were harvested from immunized mice or naïve Balb/c mice, and manually homogenized. Splenic homogenates were combined from 4 mice per immunization, and CD3^+ T cells were isolated using EasySep Mouse T cell Enrichment Kit (Stem Cell Technologies). 1×10^6 CD3+ T cells were administered intravenously into A20 tumor-bearing mice.
4×10^6 wild-type A20 cells were subcutaneously implanted into immunodeficient NOD/SCID/γ-chain-deficient (NSG) mice. 5 days after implant, mice harboring tumors˜100 mm^3 were randomized, and received 1×10^6T cells from mice as described above.

[6] = system: LCL tumors; assay: T cell and NK cell infiltration into autologous LCL tumors, humanized mouse model; assay type: in vivo, NSG mice; conditions: single suboptimal dose 1 mg/kg i.p., autologous PBMC transferred
Experimental: Epstein Barr virus (EBV) transformed lymphoblastoid cell Lines (LCL) were implanted subcutaneously into NSG mice. When LCL tumor volumes reached 250 mm^3, mice received a single suboptimal dose of BV or control hIgG-MMAE (1 mg/kg, i.p). Three days following dosing, 2.0×10^6 autologous peripheral blood mononuclear cells (PBMC) were adoptively transferred to mice via tail vein injection. Eleven days following transfer of PBMC, tumors were harvested, weighed, and manually dissociated through a 70 μm cell strainer. Following centrifugation, individual tumor cell pellets were resuspended in 4 ml of RPMI+10% FCS, and 200 ul of the cell suspension was used for staining and analysis by flow cytometry (FACS). Tumor cell suspensions were stained with Zombie Aqua Viability Dye (Biolegend) followed by staining with fluorescently labeled antibodies targeting human CD19, CD2, CD8, CD4, CD56, human CD45, PD-L1, PD-1, and murine CD45.1 (1:50 dilution, Biolegend) in staining buffer (SB: PBS, 2% FCS, 1% NRS, 0.05% NaN3) at 4° C. for 30 minutes. Cells were washed and resuspended in 120 μl of SB for plate-based FACS using an Attune NXT flow cytometer. All events were collected from 80 μl of sample, and FACS-measured cell concentrations were used to calculate numbers of infiltrating immune cells. CD8^+ T cells were identified as viability dye^neg, hCD45^+, mCD45.1^−, CD2^+, CD8^+ cells. […]

[7] = system: LCL tumors; assay: immune-mediated tumor clearance in the humanized LCL tumor model; assay type: in vivo, NSG mice
Experimental: Epstein Barr virus (EBV) transformed lymphoblastoid cell lines (LCL) were implanted subcutaneously into NSG mice. When LCL tumors averaged 250 mm^3, mice received a single suboptimal dose of BV or control hIgG-MMAE (1 mg/kg, i.p). Three days following dosing, 2×10^6 autologous PBMC were adoptively transferred to mice via tail vein injection. Mice received two doses of nivolumab (10 mg/kg, i.p.) 2 and 7 days after adoptive transfer of PBMC. […] The significance of these differences is reflected in a comparison of mean tumor volumes at day 50, during active tumor clearance (FIG. 15B). Taken together, results obtained from this humanized model support the conclusion that in addition to direct tumor cell killing, BV drives an inflammatory response that enhances immune-mediated cellular cytotoxicity and pairs well with nivolumab.

[8] = system: CD30+ relapsed, refractory DLBCL; conditions: patients treated with BV; cited from earlier work
[9] = system: CD30+ relapsed, refractory peripheral T-cell lymphoma (PTCL); conditions: patients treated with BV; cited from earlier work
[10] = system: CD30+ cutaneous T-cell lymphoma (CTCL); conditions: patients treated with BV; cited from earlier work
[11] = system: CD30^+ cell lines; conditions: in vitro; cited from earlier work
[12] = system: xenograft models of Hodgkin disease; conditions: SCID mouse xenograft; cited from earlier work
[13] = molecular target: T1, PD-1 (Homo sapiens, UniProt Q15116); conditions: 15 subjects, 0.3 mg/kg to 10 mg/kg nivolumab, across all doses; cited from earlier work
T1 construct: Receptor-occupancy data from 15 subjects who received 0.3 mg/kg to 10 mg/kg dosing with nivolumab indicate that PD-1 occupancy appears to be dose-independent; host or cells: endogenous receptor in dosed subjects

[14] = monotherapy, every two weeks; MTD not reached; cited from earlier work

T1 sequence (Q15116 25-288): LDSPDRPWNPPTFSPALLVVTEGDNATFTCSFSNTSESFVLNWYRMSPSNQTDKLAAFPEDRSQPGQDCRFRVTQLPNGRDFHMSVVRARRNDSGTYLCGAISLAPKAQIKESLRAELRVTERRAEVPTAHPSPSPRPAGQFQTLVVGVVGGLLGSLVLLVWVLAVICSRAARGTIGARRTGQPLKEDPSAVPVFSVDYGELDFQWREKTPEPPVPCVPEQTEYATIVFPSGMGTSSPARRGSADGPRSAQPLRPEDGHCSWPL

Molecule: CC[C@H](C)[C@@H]([C@@H](CC(=O)N1CCC[C@H]1[C@H](OC)[C@@H](C)C(=O)N[C@H](C)[C@@H](O)c1ccccc1)OC)N(C)C(=O)[C@@H](NC(=O)[C@H](C(C)C)N(C)C(=O)OCc1ccc(NC(=O)[C@H](CCCNC(N)=O)NC(=O)[C@@H](NC(=O)CCCCCN2C(=O)C=CC2=O)C(C)C)cc1)C(C)C [mc-vc-MMAE] ({Hexanoyl(6-maleimido)}-V[Cit][PABC][NMeV]V[Dil][Dolaproine]-X1)
- survival of tumor-bearing mice [1]: increased survival
- tumor growth [1]: delayed tumor growth
- protective anti-tumor immunity [2]: conferred protective anti-tumor immunity

Molecule: BV: CD30-directed antibody-drug conjugate: chimeric anti-CD30 antibody cAC10, MMAE and a protease-cleavable linker
- pro-inflammatory cytokine and chemokine levels ([3]; after BV dosing, following concurrent BV and nivolumab): increase
- Pro-inflammatory cytokine IL-18 levels ([3]; after C1D1 BV dosing, with BV and nivolumab dosing): significantly higher
- T-cell chemokine IP10 levels ([3]; after C1D1 BV, following C1D8 nivolumab dosing): significantly higher
- Serum TARC levels ([3]; compared to baseline): significantly lower
- percentage of CD4+ T regulatory (Treg) cells ([4]; Cycle 1 Day 8, preliminary): decrease
- proliferating CD8+ T cells ([4]; Cycle 1 Day 8, preliminary): no effect
- T helper subsets, such as Tregs ([4]; peripheral blood): initial reduction; also recorded: reduced
- activated CD4+ T cells ([4]; peripheral blood): initial reduction; also recorded: reduced
- proliferating CD4+ T cells ([4]; peripheral blood): initial reduction; also recorded: reduced
- survival of tumor-bearing mice [1]: increased survival
- tumor growth [1]: delayed tumor growth
- tumor growth ([5]; NSG mice given 1×10^6 T cells from mice immunized with BV-killed cells): slowed tumor growth
- CD8 T cells within the tumor ([5]; NSG mice given T cells from mice immunized with BV-killed cells): increased CD8 T cells within the tumor
- protective anti-tumor immunity [2]: conferred protective anti-tumor immunity
- intratumoral accumulation of human cytotoxic cells [6]: enhanced intratumoral accumulation of human cytotoxic cells
- tumor rejection ([7]; suboptimal dose 1 mg/kg i.p. without the addition of PBMC): did not reject tumors
- immune-mediated tumor clearance ([7]; with autologous PBMC, BV 1 mg/kg i.p., nivolumab 10 mg/kg i.p.): enhanced immune-mediated tumor clearance
- ORR [8]: 44%
- ORR [9]: 41%
- ORR [10]: 73%

Molecule: cAC10: chimeric IgG1 monoclonal antibody that specifically binds CD30
- growth of CD30+ cell lines [11]: induces growth arrest
- antitumor activity [12]: pronounced antitumor activity

Molecule: nivolumab
- T cells ([4]; Cycle 1, one week after nivolumab dosing (2 weeks after BV dosing)): robust expansion
- percentage of CD4+ Th1 cells compared to baseline ([4]; most patients (5 of 6, 83%)): no significant change
- mean occupancy rate (PD-1) [13]: 85%
- mean plateau occupancy (PD-1) [13]: 72%
- maximum tolerated dose (MTD) [14]: > 10 mg/kg
